# Source: patent US20240239840A1, “method for the treatment of pain and a medicinal product for administration during pain” (PVP LABS PTE.LTD., priority 2023, published 2024)
# Square brackets hold non-standard residues; d marks the D form. Peptide text beside a SMILES is read from it.
# Experiments:
# μ1-opioid receptor = μ1-opioid receptor (Homo sapiens, UniProt P35372); assay: opioid receptor specificity of the tetrapeptide; format: binding
# From the text: (§1) Two subtypes of μ receptors are recognized: activation of μ1 receptors causes pronounced analgesia, while activation of μ2-receptors leads to respiratory depression, cardiovascular system disturbances such as bradycardia, and suppression of intestinal motility. Therefore, high specificity of the tetrapeptide in question to μ1-opioid receptors ensures the absence of side effects that are typical of most opioid narcotic medications. This tetrapeptide interacts with peripheral and central receptors, although it mostly acts at the spinal level. After the tetrapeptide binds to μ1-receptors, G-protein complex is released, which inhibits the release of neurotransmitters by the cell by reducing the amount of cAMP produced, closing calcium channels and opening potassium channels, which, among other consequences, inhibits the transmission of pain signals in nociceptors. The tetrapeptide activates the antinociceptive system, thereby disrupting interneuronal transmission of pain signals at different levels of the CNS, and changes the intensity of pain perception by acting on the higher brain centres.
# other opioid receptors = assay: opioid receptor specificity of the tetrapeptide; format: binding
# From the text: as §1
# δ-receptors = δ-receptors (Homo sapiens, UniProt P41143); assay: opioid receptor specificity of the tetrapeptide; format: binding
# From the text: as §1
# [1] = tested on: patients with early postoperative pain; assay: clinical trial of pain treatment in the early postoperative period, efficacy; format: in vivo, human
# Method: (§2) Additional clinical trials focused of the treatment of pain in the early postoperative period after a variety of surgical interventions, including urological, gynaecological and other surgeries.
# (§3) If NRS pain intensity score on day two was <4, only paracetamol was administered by IV injection as necessary, and the maximum daily dose was […]. […] Pain was usually brought under control within 1-2 days in the early postoperative period.
# [2] = clinical trial of pain treatment in the early postoperative period, safety; format: in vivo, human; conditions: groups treated with Promedol
# Method: as §2, §3
# [3] = tested on: cancer patients with severe cancer pain; assay: phase II clinical trial, efficacy in cancer patients experiencing pain; format: in vivo, human
# Method: (§4) Pain intensity was evaluated on a numeric rating scale (NRS) from 0 to 10. […] The patients' physical activity score on the Eastern Cooperative Oncology Group (ECOG) performance status scale was 0 to 3, i.e. they were active and were up and about for over 50% of waking hours (grade 2 on the ECOG scale) or were capable of only limited self-care and confined to bed or chair more than 50% of waking hours (grade 3 on the ECOG scale).
# (§5) The study was carried out in two stages. The total duration of the trial for each patient was 20 days or less. […] The number of doses depended on pain intensity as evaluated on the NRS scale for each individual patient.
# The primary efficacy endpoint was the rate of achieving a sufficient analgesic effect throughout the day.
# [4] = tested on: patients with cancer pain; assay: phase III clinical trial, efficacy in patients with cancer pain; format: in vivo, human
# Method: Primary efficacy evaluation was performed during the following visits: Visit 1 (day 1 of tetrapeptide treatment), Visit 2 (day 28±2 of tetrapeptide treatment), Visit 3 (day 56±2 of tetrapeptide treatment) and Visit 4 (day 86±2 of tetrapeptide treatment).
# Analgesic treatment response maintenance rate by day 28.
# Treatment response was considered maintained if all of the following conditions were met: • 1. […] Daily average pain intensity at the end of the 28-day treatment period remains at <50% of the intensity at the start of titration.
# [5] = phase III clinical trial, safety in patients with cancer pain
# [6] = phase II clinical trial, safety in cancer patients experiencing pain
# Method: as §4, §5
# Comments: 1. […] 2. SAE=serious adverse event.
# [7] = Promedol 20 mg three times daily
# [8] = Promedol 20 mg three times daily on day 1
# [9] = investigator-evaluated, Visit 2
# Chain of δ-receptors (P41143 whole entry): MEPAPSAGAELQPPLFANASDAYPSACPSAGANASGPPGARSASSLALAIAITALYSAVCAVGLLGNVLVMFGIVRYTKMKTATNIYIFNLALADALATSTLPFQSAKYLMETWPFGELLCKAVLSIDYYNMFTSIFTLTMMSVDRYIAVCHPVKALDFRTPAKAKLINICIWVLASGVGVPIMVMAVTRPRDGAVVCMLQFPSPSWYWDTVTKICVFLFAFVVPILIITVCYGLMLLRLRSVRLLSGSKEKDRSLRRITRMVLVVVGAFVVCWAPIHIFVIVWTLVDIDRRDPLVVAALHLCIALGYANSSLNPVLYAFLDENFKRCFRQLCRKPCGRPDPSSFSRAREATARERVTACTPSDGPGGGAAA
# Chain of μ1-opioid receptor (P35372 whole entry): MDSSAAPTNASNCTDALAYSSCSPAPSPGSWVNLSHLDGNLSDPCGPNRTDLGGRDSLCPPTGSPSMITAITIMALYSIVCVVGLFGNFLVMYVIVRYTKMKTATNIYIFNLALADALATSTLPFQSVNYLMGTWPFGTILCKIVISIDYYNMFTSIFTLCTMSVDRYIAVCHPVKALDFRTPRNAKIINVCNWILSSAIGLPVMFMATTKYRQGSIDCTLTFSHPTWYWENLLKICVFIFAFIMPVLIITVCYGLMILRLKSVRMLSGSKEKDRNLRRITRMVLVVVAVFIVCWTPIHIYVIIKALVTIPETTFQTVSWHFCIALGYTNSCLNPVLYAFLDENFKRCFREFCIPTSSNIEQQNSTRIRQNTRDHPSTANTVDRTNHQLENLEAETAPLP
structure (smiles),measurement,setting,value
"N=C(N)NCCC[C@@H](NC(=O)[C@@H](N)Cc1ccc(O)cc1)C(=O)N[C@@H](Cc1ccccc1)C(=O)NCC(N)=O [H-Tyr-D-Arg-Phe-Gly-NH2, Tyrosyl-D-arginyl-phenylalanyl-glycinamide] (H-Y[dR]FG-NH2)",opioid receptor activity,μ1-opioid receptor,highly specific μ1-opioid receptor agonist
same,interactions with the other receptors,other opioid receptors,no interactions with the other receptors have been detected
same,interaction with δ-receptors weaker than with μ-opioid receptors,δ-receptors,3 orders of magnitude
CCC(=O)OC1(c2ccccc2)CC(C)N(C)CC1C (centres unmarked) [Promedol],daily average NRS pain intensity score,[1]; [7],2.16±0.66
same,mean change in pain intensity,[1]; [7],55.44±33.17%
same,proportion of patients with greater than 50% pain relief at 1 hour after the initial dose,[1]; [7],50%
same,patients requiring repeat dosing on day 2 who were dosed three times,[1]; [8],16.67%
same,patients requiring repeat dosing on day 2 who were dosed twice,[1]; [8],83.33%
same,daily average NRS pain intensity score,"[1]; day 2, Promedol 20 mg three times daily",1.41±1.92
same,patients with AEs,[2],35%
CN1CC[C@]23c4c5ccc(O)c4O[C@H]2[C@@H](O)C=C[C@H]3[C@H]1C5 [morphine],average stable daily dose ensuring adequate pain relief,"[3]; baseline, all Taphalgin dose subgroups",20.31 mg
same,average starting dose,"[3]; before study, patients of the 2 mg Taphalgin subgroup",18.33 mg
same,within-group trend of daily average NRS pain intensity scores,[3]; stage 2,flat
same,daily average NRS pain intensity score,"[3]; stage 2, day of dosing 11",0.12 ± 0.22
same,daily average NRS pain intensity score,"[3]; stage 2, day of dosing 12",0.30 ± 0.38
same,daily average NRS pain intensity score,"[3]; stage 2, day of dosing 13",0.24 ± 0.35
same,daily average NRS pain intensity score,"[3]; stage 2, day of dosing 14",0.24 ± 0.35
same,daily average NRS pain intensity score,"[3]; stage 2, day of dosing 15",0.28 ± 0.30
same,daily average NRS pain intensity score,"[3]; stage 2, day of dosing 16",0.17 ± 0.21
same,daily average NRS pain intensity score,"[3]; stage 2, day of dosing 17",0.17 ± 0.23
same,average SF-36 mental health score,[4]; Visit 0,31.42±12.16
same,average SF-36 physical health score,[4]; Visit 0,32.22±10.76
same,average SF-36 mental health score,[4]; Visit 2,31.42±12.16
same,average SF-36 physical health score,[4]; Visit 2,49.52±11.73
same,non-responders to therapy,[4]; by Visit 2,no non-responders
same,proportion of patients who required a dose increase,[4]; by Visit 2,6.52%
same,proportion of patients with at least one episode of breakthrough pain,[4]; by Visit 2,2.17%
same,daily average NRS pain intensity score (Mean±SD),"[4]; by group, at Visit 2",0.28±0.30
same,proportion of patients with a “good response” to therapy,[4]; [9],67.39%
same,proportion of patients with a “satisfactory response” to therapy,[4]; [9],0.00%
same,proportion of patients with an “excellent response” to therapy,[4]; [9],32.61%
same,prevalence of patients with AEs,[5]; Period 1,71.19%
same,total number of AEs reported,[5]; Period 1,119
same,AEs mild,"[5]; Period 1, % of cases",65.55%
same,AEs moderate,"[5]; Period 1, % of cases",33.61%
same,AEs severe,"[5]; Period 1, % of cases",0.84%
same,causality between AEs and therapy: certain,"[5]; Period 1, % of cases",13.44%
same,causality between AEs and therapy: conditional,"[5]; Period 1, % of cases",0.84%
same,causality between AEs and therapy: possible,"[5]; Period 1, % of cases",38.66%
same,causality between AEs and therapy: probable,"[5]; Period 1, % of cases",29.41%
same,causality between AEs and therapy: unclassifiable,"[5]; Period 1, % of cases",0.84%
same,causality between AEs and therapy: unlikely,"[5]; Period 1, % of cases",11.76%
same,causality between AEs and therapy: unrelated,"[5]; Period 1, % of cases",5.04%
same,"number of AEs with causality “certain”, “probable” or “possible”","[5]; both, human, in vivo, oral",97
same,prevalence of patients with reported AEs,[5]; comprehensive within-group analysis (44/120 vs 43/59),72.88%
same,dyspnoea / difficulty breathing,"[6]; human, in vivo",difficulty breathing was observed
same,"Acute heart failure (SAE), % of the total number of AEs for the group",[6]; stage 2,(3.7) %
same,"Anaemia, % of the total number of AEs for the group",[6]; stage 2,(3.7) %
same,"Appetite lost, % of the total number of AEs for the group",[6]; stage 2,(7.4) %
same,"Asthenia, % of the total number of AEs for the group",[6]; stage 2,(14.8) %
same,"Constipation, % of the total number of AEs for the group",[6]; stage 2,(14.8) %
same,"Cough, % of the total number of AEs for the group",[6]; stage 2,(3.7) %
same,"Dizziness postural, % of the total number of AEs for the group",[6]; stage 2,(0) %
same,"Dizziness, % of the total number of AEs for the group",[6]; stage 2,(3.7) %
same,"Dry mouth, % of the total number of AEs for the group",[6]; stage 2,(3.7) %
same,"Flatulence, % of the total number of AEs for the group",[6]; stage 2,(3.7) %
same,"Insomnia, % of the total number of AEs for the group",[6]; stage 2,(3.7) %
same,"Multiple organ dysfunction syndrome (SAE), % of the total number of AEs for the group",[6]; stage 2,(3.7) %
same,"Nausea, % of the total number of AEs for the group",[6]; stage 2,(3.7) %
same,"Peripheral oedema, % of the total number of AEs for the group",[6]; stage 2,(3.7) %
same,"Pulmonary oedema (SAE), % of the total number of AEs for the group",[6]; stage 2,(3.7) %
same,"Sedation, % of the total number of AEs for the group",[6]; stage 2,(7.4) %
same,"Shortness of breath, % of the total number of AEs for the group",[6]; stage 2,(3.7) %
same,"Total, % of the total number of AEs for the group",[6]; stage 2,(100) %
same,"Vomiting, % of the total number of AEs for the group",[6]; stage 2,(3.7) %
same,incidence of AEs,"[6]; stage 2, 16 patients per group",50.0%
same,number of patients in whom AEs were reported,"[6]; stage 2, 16 patients per group",8
same,number of SAEs reported,"[6]; stage 2, in 1 patient",1
